Reference: patent US7915293B2, “Ubiquitin ligase inhibitors” (Rigel Pharmaceuticals, Inc., priority 2003, dated 2011)

What was measured:
Design in all cases: key: “+” indicates that the compound exibits inhibitory activity; “−” indicates that low or no inhibitory activity was observed
[1] = target: E3 (His-APC11/APC2-"APC") (Homo sapiens, UniProt Q9NYG5+Q9UJX6); assay: Plate-based E3 ligase assay (APC FLAG), auto-ubiquitination; assay type: biochemical; conditions: 8 concentrations tested
Outline: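 His-APC11/APC2 auto-ubiquitination was run in casein-blocked nickel plates for 1 h at room temperature, with E1 at 5 ng/well, UbcH5c at 20 ng/well and APC at 100 ng/well. Buffer was 62.5 mM Tris pH 7.6, 3 mM MgCl2, 1 mM DTT, 2.5 mM ATP and Flag-ubiquitin at 100 ng/well. Detection used anti-Flag/HRP chemiluminescence, and IC50 was typically from 6 or 8 concentrations versus a DMSO control.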

[2] = system: A549 cells; assay: Cell proliferation assay, photographic image analysis of proliferation, apoptosis and death (PAD assay), A549; assay type: cell-based; conditions: 6 concentrations tested
Protocol: (§1) A549 (ATCC# CCL-185), HeLa (ATCC# CCL-2), HCT116 (ATCC# CCL-247), and H1299 (ATCC# CRL-5803) cells were maintained in T175 flasks following the ATCC recommended media and handling procedures. Flasks reaching approximately 70% confluency were trypsinized and resuspended in RPMI media (Cell-Gro catalog number 10-040-CM) modified to contain 5% FBS, 100 ug/mlPen/Strep (Cell-Gro catalog number 30-002-CL), and 0.3 mg/ml L-Glutamine (Cell-Gro catalog number 25-003-CL). A 20,000 cells/ml solution was made for plating. Cells were plated in black Packard 96 well plates by placing 100 μl per well (2,000 cells per well).
(§2) Compounds and additional media were added 24 hours after cell plating. A compound master plate was created with concentrations 500 times greater than the final concentration added to the cells. All compound testing was done in duplicate using 6.3 fold dilutions starting with 10 mM. All outside wells (and 4 internal wells) were DMSO controls. Taxol and at least one additional control were run on all plates. Three microliters of the compound master plate were added to deep well blocks containing 750 μl of RPMI media. One hundred microliters were transferred from the compound/media deep well blocks to the plated cells resulting in a 500 fold dilution of the compounds. Cells were grown at 37° C., 5% CO2 for 48 hours.
(§3) Cells to be analyzed by photography were fixed and stained. One hundred microliters of media were removed and 100 μl of 9.3% […] was added to each well. Plates were left on the benchtop for 45 minutes. A staining solution containing 1.55 μl of 1 mg/ml DAPI added to 18.75 ml PBS was warmed for 15 minutes at 37° C. The cells were aspirated prior to washing with 100 μl of PBS. Seventy microliters of PBS were aspirated and 170 μl of the DAPI solution were added to each well of fixed cells. Plates were left at room temperature for one hour then aspirated and washed twice with 100 μl of PBS. The stained cells were left at 4° C. for a minimum of 16 hours before photographic analysis with Array Scan II (Cellomics). Analysis of the photographic images to determine numbers of live cells (proliferation), apoptotic cells and dead cells, were according to the methods described in U.S. Provisional Patent Application Ser. No. 60/406,714, which incorporated herein in its entirety.

[3] = system: HeLa cells; assay: Cell proliferation assay, photographic image analysis of proliferation, apoptosis and death (PAD assay), HeLa; assay type: cell-based; conditions: 6 concentrations tested
Protocol: as §1, §2, §3

Sequence of E3 (His-APC11/APC2-"APC") (Q9NYG5 whole entry): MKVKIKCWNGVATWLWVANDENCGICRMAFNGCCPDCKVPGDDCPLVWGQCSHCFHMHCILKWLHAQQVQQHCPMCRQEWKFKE
Sequence of E3 (His-APC11/APC2-"APC") (Q9UJX6 whole entry): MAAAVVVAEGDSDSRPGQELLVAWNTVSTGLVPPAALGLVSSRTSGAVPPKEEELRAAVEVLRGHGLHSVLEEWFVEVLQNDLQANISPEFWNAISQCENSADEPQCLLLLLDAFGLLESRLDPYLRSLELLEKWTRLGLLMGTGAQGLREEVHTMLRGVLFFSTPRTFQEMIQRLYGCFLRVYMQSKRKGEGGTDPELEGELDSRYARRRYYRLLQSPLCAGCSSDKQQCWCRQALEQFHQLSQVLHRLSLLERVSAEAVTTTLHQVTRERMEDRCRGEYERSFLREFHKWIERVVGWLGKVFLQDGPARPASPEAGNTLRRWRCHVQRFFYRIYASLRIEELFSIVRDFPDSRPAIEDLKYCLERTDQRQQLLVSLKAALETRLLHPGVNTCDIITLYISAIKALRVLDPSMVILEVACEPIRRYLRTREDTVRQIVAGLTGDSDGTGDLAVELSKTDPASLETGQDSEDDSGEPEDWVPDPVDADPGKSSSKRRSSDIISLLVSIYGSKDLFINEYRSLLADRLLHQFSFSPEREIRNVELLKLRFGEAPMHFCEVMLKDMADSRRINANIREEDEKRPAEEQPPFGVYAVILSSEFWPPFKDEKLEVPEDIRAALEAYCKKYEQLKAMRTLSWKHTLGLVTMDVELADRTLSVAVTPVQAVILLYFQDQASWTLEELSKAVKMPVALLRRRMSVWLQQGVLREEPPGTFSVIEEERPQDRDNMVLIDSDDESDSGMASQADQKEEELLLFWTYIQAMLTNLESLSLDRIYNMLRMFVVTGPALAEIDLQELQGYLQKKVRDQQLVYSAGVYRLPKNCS

Row | Structure (SMILES) | APC Flag 8 pt [1] | PAD Assay, A549 6 pt [2] | PAD Assay, HELA 6 pt [3]
1 | O=[N+]([O-])c1ccc(Oc2c(Cl)cc(S(=O)(=O)Nc3ccc(F)cc3F)cc2Cl)c(Cl)c1 [Example 17, 3,5-dichloro-4-(2-chloro-4-nitrophenoxy)-N-(2,4-difluorophenyl)benzene-sulfonamide] | + | − | 
2 | O=[N+]([O-])c1ccc(Oc2c(Cl)cc(S(=O)(=O)N3CCCCC3)cc2Cl)c(Cl)c1 [Example 21, 1-{[3,5-dichloro-4-(2-chloro-4-nitrophenoxy)phenyl]sulfonyl}piperidine] | − | − | 
3 | N=C(NS(=O)(=O)c1cc(Cl)c(Oc2ccc([N+](=O)[O-])cc2Cl)c(Cl)c1)c1ccncc1 [Example 29, N-{[3,5-dichloro-4-(2-chloro-4-nitrophenoxy)phenyl]sulfonyl}pyridine-4-carboximidamide] | + | + | 
4 | O=S(=O)(c1cccc(C(F)(F)F)c1)N1CCC(Oc2ccccc2C(F)(F)F)CC1 [Example 301, 4-(2-(trifluoromethyl)phenoxy)-1-(3-(trifluoromethyl)phenylsulfonyl)piperidine] |  | + | +
5 | O=S(=O)(Nc1ccc(Oc2ncc(C(F)(F)F)cc2Cl)cc1)c1cccc(Cl)c1 [Compound 294, 3-chloro-N-(4-(3-chloro-5-(trifluoromethyl)pyridyn-2-yloxy)phenyl)benzenesulfonamide] |  | + | +
6 | O=S(=O)(Nc1ccc(Oc2ncccn2)c(Cl)c1)c1cccc(Cl)c1 [Compound 292, 3-chloro-N-[3-chloro-4-(pyrimidin-2-yloxy)phenyl]benzenesulfonamide] |  | + | −
7 | N=C(CCl)NS(=O)(=O)c1cc(Cl)c(Oc2ccc([N+](=O)[O-])cc2)c(Cl)c1 [Example 31, 2-chloro-N-{[3,5-dichloro-4-(4-nitrophenoxy)phenyl]sulfonyl}ethanimidamide] | − | + | 
8 | N=C(NS(=O)(=O)c1cc(Cl)c(Oc2ccc([N+](=O)[O-])cc2)c(Cl)c1)c1cccnc1 [Example 60, N-{[3,5-dichloro-4-(4-nitrophenoxy)phenyl]sulfonyl}pyridine-3-carboximidamide] | − | + | 
9 | N=C(NS(=O)(=O)c1cc(Cl)c(Oc2ccc([N+](=O)[O-])cc2Cl)c(Cl)c1)c1ccccn1 [Example 27, N-{[3,5-dichloro-4-(2-chloro-4-nitrophenoxy)phenyl]sulfonyl}pyridine-2-carboximidamide] | − | − | 
10 | N=C(NS(=O)(=O)c1cc(Cl)c(Oc2ccc([N+](=O)[O-])cc2Cl)c(Cl)c1)c1cccnc1 [Example 26, N-{[3,5-dichloro-4-(2-chloro-4-nitrophenoxy)phenyl]sulfonyl}pyridine-3-carboximidamide] | − | + | 
11 | N=C(NS(=O)(=O)c1cc(Cl)c(Oc2ccc([N+](=O)[O-])cc2Cl)c(Cl)c1)c1ccc(Cl)cc1 [Example 25, 4-chloro-N-{[3,5-dichloro-4-(2-chloro-4-nitrophenoxy)phenyl]sulfonyl}benzene-carboximidamide] | + | − | 
12 | CC1CN(S(=O)(=O)c2cc(Cl)c(Oc3ccc([N+](=O)[O-])cc3Cl)c(Cl)c2)CC(C)O1 (stereo not drawn) [Example 18, 4-{[3,5-dichloro-4-(2-chloro-4-nitrophenoxy)phenyl]sulfonyl}-2,6-dimethylmorpholine] | − | − | 
